Assay results: patent publication US20110209253A1, “Method for Improving Plant Health” (BASF SE, priority 2008, published 2011)
Where two headings read alike, the source gives them in different places.

Tested on: Wheat plants (Triticum aestivum cv. Monopol)
Test: Growth-promoting effect on wheat plants after foliar treatment (Example 3)
Type: in vivo
Details: after 18 days; for activity at 7.5 g/ha / activity at 15 g/ha: Triticum aestivum, 432 h
Protocol: Wheat plants (Triticum aestivum cv. Monopol) were grown in soil with ten plants per pot (13 cm diameter) under greenhouse conditions. Plants at the 2nd leaf stage were sprayed with aqueous solutions of formulated compounds: • Compound 2: 5-Methyl-2-trifluoromethyl-furan-3-carboxylic acid (1-methylcarbamoyl-2-phenyl-ethyl)-amide • Compound 3: 1-Methyl-3-trifluoromethyl-1H-pyrazole-4-carboxylic acid (1-methylcarbamoyl-2-phenyl-ethyl)-amide • Compound 4: Methyl-carbamic acid-2-methylcarbamoyl-2-[(1-methyl-3-trifluoromethyl-1H-pyrazole-4-carbonyl)-amino]-ethyl ester • Compound 5: Methyl-carbamic acid-2-methylcarbamoyl-2-[(1-methyl-3-trifluoromethyl-1H-pyrazole-4-carbonyl)-amino]-1-(tetrahydro-pyran-4-yl)-ethyl ester • Compound 6: Methyl-carbamic acid 1,1-dimethyl-2-methylcarbamoyl-2-[(1-methyl-3-trifluoromethyl-1H-pyrazole-4-carbonyl)-amino]-ethyl ester • Compound 7: 1-Methyl-3-trifluoromethyl-1H-pyrazole-4-carboxylic acid (2-hydroxy-3-methoxy-2-methoxymethyl-1-methylcarbamoyl-propyl)-amide • Compound 8: Methyl-carbamic acid 1,1-bis-methoxymethyl-2-methylcarbamoyl-2-[(1-methyl-3-trifluoromethyl-1H-pyrazole-4-carbonyl)-amino]-ethyl ester • Compound 9: Methyl-carbamic acid (E)-1-methyl-1-{methylcarbamoyl-[(1-methyl-3-trifluoromethyl-1H-pyrazole-4-carbonyl)-amino]-methyl}-but-2-enyl ester The compounds were applied at two different dose rates (15 and 7.5 g ai/ha) and the spray volume was 750 I/ha. Six replicate pots with ten plants each were used per treatment. After 18 days plants were harvested and growth parameters were determined. The recorded parameters were fresh weight (FW) and dry weight (DW). Mean values of results, standard deviation (SD) and percentage to control were calculated.

[1] = 7.5 g/ha foliar spray, read-out: Shoot DW % of control
[2] = 7.5 g/ha foliar spray, read-out: Shoot FW % of control
[3] = 15 g/ha foliar spray, read-out: Shoot DW % of control
[4] = 15 g/ha foliar spray, read-out: Shoot FW % of control

| SMILES | Shoot DW (7.5 g/ha foliar spray) [g] | Shoot FW (7.5 g/ha foliar spray) [g] | Shoot DW (15 g/ha foliar spray) [g] | Shoot FW (15 g/ha foliar spray) [g] | activity at 7.5 g/ha [1] [%] | activity at 7.5 g/ha [2] [%] | activity at 15 g/ha [3] [%] | activity at 15 g/ha [4] [%] |
| --- | --- | --- | --- | --- | --- | --- | --- | --- |
| CNC(=O)C(Cc1ccccc1)NC(=O)c1cc(C)oc1C(F)(F)F (stereo not shown) [Compound 2, 5-Methyl-2-trifluoromethyl-furan-3-carboxylic acid (1-methylcarbamoyl-2-phenyl-ethyl)-amide] | 3.8 | 40.9 | 3.7 | 38.7 | 135 | 134 | 131 | 126 |
| CNC(=O)C(Cc1ccccc1)NC(=O)c1cn(C)nc1C(F)(F)F (stereo not shown) [Compound 3, 1-Methyl-3-trifluoromethyl-1H-pyrazole-4-carboxylic acid (1-methylcarbamoyl-2-phenyl-ethyl)-amide] | 3.8 | 39.4 | 3.8 | 39.1 | 135 | 129 | 135 | 128 |
| CNC(=O)OCC(NC(=O)c1cn(C)nc1C(F)(F)F)C(=O)NC (stereo not shown) [Compound 4, Methyl-carbamic acid-2-methylcarbamoyl-2-[(1-methyl-3-trifluoromethyl-1H-pyrazole-4-carbonyl)-amino]-ethyl ester] | 3.7 | 37.7 | 3.8 | 40.1 | 131 | 123 | 137 | 131 |
| CNC(=O)OC(C1CCOCC1)C(NC(=O)c1cn(C)nc1C(F)(F)F)C(=O)NC (stereo not shown) [Compound 5, Methyl-carbamic acid 2-methylcarbamoyl-2-[(1-methyl-3-trifluoromethyl-1H-pyrazole-4-carbonyl)-amino]-1-(tetrahydro-pyran-4-yl)-ethyl ester] | 3.8 | 41.2 | 3.7 | 39.6 | 135 | 135 | 133 | 129 |
| CNC(=O)OC(C)(C)C(NC(=O)c1cn(C)nc1C(F)(F)F)C(=O)NC (stereo not shown) [Compound 6, Methyl-carbamic acid 1,1-dimethyl-2-methylcarbamoyl-2-[(1-methyl-3-trifluoromethyl-1H-pyrazole-4-carbonyl)-amino]-ethyl ester] | 3.7 | 39.2 | 3.6 | 38.2 | 132 | 128 | 130 | 125 |
| CNC(=O)C(NC(=O)c1cn(C)nc1C(F)(F)F)C(O)(COC)COC (stereo not shown) [Compound 7, 1-Methyl-3-trifluoromethyl-1H-pyrazole-4-carboxylic acid (2-hydroxy-3-methoxy-2-methoxymethyl-1-methylcarbamoyl-propyl)-amide] | 3.7 | 38.7 | 3.7 | 40.2 | 131 | 126 | 133 | 131 |
| CNC(=O)OC(COC)(COC)C(NC(=O)c1cn(C)nc1C(F)(F)F)C(=O)NC (stereo not shown) [Compound 8, Methyl-carbamic acid 1,1-bis-methoxymethyl-2-methylcarbamoyl-2-[(1-methyl-3-trifluoromethyl-1H-pyrazole-4-carbonyl)-amino]-ethyl ester] | 3.9 | 39.6 | 3.7 | 39.4 | 138 | 129 | 131 | 121 |
| C/C=C/C(C)(OC(=O)NC)C(NC(=O)c1cn(C)nc1C(F)(F)F)C(=O)NC (stereo not shown) [Compound 9, Methyl-carbamic acid (E)-1-methyl-1-{methylcarbamoyl-[(1-methyl-3-trifluoromethyl-1H-pyrazole-4-carbonyl)-amino]-methyl}-but-2-enyl ester] | 3.6 | 38.8 | 3.8 | 39.4 | 129 | 127 | 135 | 129 |
